Measurements published in patent US7141589B2, “Methods of inhibiting formation of vascular channels and methods of inhibiting proliferation” (The United States of America as represented by the …, priority 2001, dated 2006).
Where “and” joins values, the source holds several entries; their conditions need not be identical. Equal entries are not always repeated. Where two headings read alike, the source gives them in different places.

What was measured:
HUVEC [1] = assay: Inhibition of DNA synthesis in HUVEC ([3H]thymidine incorporation); assay type: cell-based; conditions: Homo sapiens, read-out: IC50 for inhibition of DNA synthesis
Procedure: The test compounds were added at the indicated concentrations to exponentially growing HUVEC in 24-well plates (1×10^5 cells/well). […] DNA was precipitated with 5% trichloroacetic acid, washed once with 5% trichloroacetic acid, and dissolved in 0.2 ml of 0.2 N NaOH for measurement of radioactivity.

HUVEC [2] = assay: Tube formation on Matrigel by HUVEC; assay type: cell-based, human; conditions: 18 h; for concentration at which disruption of tube formation was manifest: HUVEC on Matrigel
Procedure: The formation of tubes on Matrigel by HUVEC was assessed as described (Kubota et al., J. Cell. Biol. 107(4): 1589–1598 (1988) and Ponce, In Vitro Matrigel Angiogenesis Assays. Totowa, N.J.: Humana Press Inc., 2000) with minor modifications as follows. Matrigel, 0.3 ml, was added to each well of a 24-well plate. After the Matrigel had gelled, HUVEC (5×10^4 cells), trypsinized from an exponentially growing culture, were added to each well in 0.2 ml of supplemented EBM-2. Test compounds were added in duplicate for each concentration and incubated at 37° C., 5% CO2, for 18 h. The medium was aspirated the next day, and the cells were fixed and stained with Diff-Quick Fix and staining solution II (Baxter Scientific Products, McGaw, Ill.).

HUVEC [3] = assay: Cell cycle analysis of HUVEC by flow cytometry; assay type: cell-based, human; conditions: for concentration that gave close to the maximum accumulation (>70%) of HUVEC in G1: 24 h of treatment
Procedure: (§1) Exponentially growing HUVEC were treated with the test compounds for 24 or 48 h, and processed for cell cycle analysis. After harvesting cells by trypsin treatment, isolation and staining of cell nuclei were performed using a CycleTEST™ PLUS DNA Reagent Kit (Becton & Dickinson, Rutherford, N.J.), according to the procedure recommended by the manufacturer. Briefly, nuclei were released from cells by treatment with a nonionic detergent and trypsin. The nuclear chromatin was stabilized with spermine. Propidium iodide was used to stain the DNA. Fluorescence histograms were generated with a FACSCalibur cytometer (Becton & Dickinson, Rutherford, N.J.), using CELLQuest software.

[4] = target: T1, deoxyhypusine hydroxylase (Homo sapiens, UniProt Q9BU89); assay: Inhibition of deoxyhypusine hydroxylation in HUVEC ([3H]spermidine labeling); assay type: cell-based; conditions: for IC50: [3H]spermidine, 18-20 h
T1 construct: endogenous in cells; host or cells: HUVEC
T1 sequence (Q9BU89 1-302): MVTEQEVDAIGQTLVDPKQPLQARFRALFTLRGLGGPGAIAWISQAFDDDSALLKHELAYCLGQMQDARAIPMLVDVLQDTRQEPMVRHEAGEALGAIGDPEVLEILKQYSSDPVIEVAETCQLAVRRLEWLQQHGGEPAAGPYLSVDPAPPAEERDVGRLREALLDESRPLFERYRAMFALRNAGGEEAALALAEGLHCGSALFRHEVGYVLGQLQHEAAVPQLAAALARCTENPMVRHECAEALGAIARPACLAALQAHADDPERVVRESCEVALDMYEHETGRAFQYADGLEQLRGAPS
Procedure: (§2) Exponentially growing HUVEC (5×10^5 cells per 60-mm dish) were incubated with 5 μCi/ml of [1,8-^3H]spermidine for 18 h in the presence or absence of the indicated concentrations of inhibitors. The cells were washed with PBS and harvested by centrifugation at 300×g for 5 minutes. Cellular proteins were precipitated with 10% trichloroacetic acid containing 1 mM each of unlabeled spermidine, spermine and putrescine, and the precipitates were washed three times to remove radiolabeled free polyamines. The washed precipitates were hydrolyzed in 6 N HCl for 18 h at 115° C. Radiolabeled hypusine and deoxyhypusine released by acid hydrolysis were separated by ion exchange chromatography using an automated Dionex D-400 amino acid analyzer (Park et al., (1982), supra). The radioactivity in the hypusine and the deoxyhypusine fractions was measured using a Beckman liquid scintillation spectrometer.

prolyl 4-hydroxylase = assay: Inhibition of collagen proline 4-hydroxylation in HUVEC ([3H]proline labeling); assay type: cell-based, human
Procedure: For the determination of collagen proline 4-hydroxylation, exponentially growing HUVEC were plated in 60-mm dishes. After cell attachment, ascorbic acid (50 μg/ml), β-aminopropionitrile (30 μg/ml), and the test compounds were added along with [^3H]proline (20 μCi/ml). After an 18-h incubation, labeled proteins (including collagen) released into the medium were precipitated with 10% trichloroacetic acid. After washing three times with 5% trichloroacetic acid solution, the precipitated proteins were hydrolyzed in 6N HCl at 115° C. for 24 h. Unlabeled hydroxyproline was added to each sample. Radioactive proline and hydroxyproline were separated by thin layer chromatography on silica gel-coated glass plates in 75% phenol (phenol:water, 75:25 w/w) containing 0.2 mg/ml NaCN (Brenner et al., Dünnschict-Chromatographie von Aminosäuren. Experientia 16: 378–383 (1960). The positions of proline and hydroxyproline were visualized by the ninhydrin reaction. Hydroxyproline separated from proline with Rf values of 0.45 and 0.58, respectively. The silica gel in the hydroxyproline and proline areas was scraped off, eluted with 0.5 ml of water, and the radioactivity in each spot was counted. The degree of proline hydroxylation was estimated from the ratio of [^3H]hydroxyproline to the total radioactivity in [^3H]proline plus [^3H]hydroxyproline.

Siha cells [5] = assay: Cell cycle arrest in Siha cells by flow cytometry; assay type: cell-based, human; conditions: 30 μm
Procedure: as §1
(§3) Siha cells were incubated for 20 hours with increasing concentrations of ciclopirox and then metabolically labeled to determine the ability to inhibit DNA synthesis, as described in Example 4, and the ability to inhibit deoxyhypusine hydroxylation, as described in Example 2. Cell cycle arrest was assessed by flow cytometry, as described in Example 5.

chick aortic arch rings = assay: Chick aortic arch ring sprouting on Matrigel
Procedure: The assay was carried out as described previously for rat aortic rings (Gho et al., 1999), supra) with a slight modification. Briefly, the aortic arches were dissected from 14-day-old chick embryos, cleaned free of unwanted tissue, and cut into 0.8 mm slices. Each ring was transferred into the center of a well of a 24-well plate to which 1.5 μl of Matrigel had just been added. Ten μl of ice-cold Matrigel were added immediately to embed the ring. When the Matrigel was solidified, 500 μl of supplemented EBM-2 were added to each well. After addition of the test compounds in sextuplicate for each concentration, the plates were incubated at 37° C. with 5% CO2, and the degree of sprouting was assessed by a blinded observer after 48 and 72 h.

[6] = target: T1, deoxyhypusine hydroxylase; assay: Inhibition of deoxyhypusine hydroxylation in Siha cells; assay type: cell-based; conditions: 30 μM, 20 hours
Procedure: as §2, §3

Siha cells [7] = assay: Inhibition of DNA synthesis in Siha cells; assay type: cell-based, human; conditions: log-phase Siha cells, 20 hours
Procedure: The test compounds were added at the indicated concentrations to exponentially growing HUVEC in 24-well plates (1×10^5 cells/well). At 10 h, [^3H]thymidine (1 μCi/well) was added. After an additional 2-h incubation, the cells were washed twice with PBS. DNA was precipitated with 5% trichloroacetic acid, washed once with 5% trichloroacetic acid, and dissolved in 0.2 ml of 0.2 N NaOH for measurement of radioactivity.
as §3

Structure (SMILES): c1ccc(-c2ccccn2)nc1 [2,2′-dipyridyl]
- IC50 (HUVEC [1]; 18 h of treatment): 55 µM
- concentration at which disruption of tube formation was manifest (HUVEC [2]): 100 µM
- concentration that gave close to the maximum accumulation (>70%) of HUVEC in G1 (HUVEC [3]): 100 µM
- IC50 [4]: 26 µM

Structure (SMILES): Cc1cc(C2CCCCC2)n(O)c(=O)c1 [ciclopirox]
- inhibition of proline hydroxylation (prolyl 4-hydroxylase; 10 μM): 63%
- cell cycle effect (Siha cells [5]): arrest in late G1
- IC50 (HUVEC [1]; 18 h, 18 h of treatment): ~10 µM
- concentration at which disruption of tube formation was manifest (HUVEC [2]): 10 to 20 µM
- relative inhibition of sprouting (chick aortic arch rings; 72 h): the most inhibitory
- suppression of deoxyhypusine hydroxylation [6]: totally suppressed
- concentration that gave close to the maximum accumulation (>70%) of HUVEC in G1 (HUVEC [3]): 30 µM
- concentration giving cell cycle arrest similar to that at 24 h with 30 μM (HUVEC [3]; 48 h treatment): 10 µM
- inhibition of DNA synthesis (Siha cells [7]): sharp, dose-dependent inhibition
- concentration above which no [3H]hypusine was detectable (complete inhibition of deoxyhypusine hydroxylase) ([4]; 20 h): > 10 µM
- concentration at which only [3H]hypusine but no [3H]deoxyhypusine was detected (no inhibition) ([4]; 20 h): ≤ 2.5 µM
- IC50 [4]: ~5 µM and 5 µM

Structure (SMILES): NC(Cn1ccc(=O)c(O)c1)C(=O)O (stereo not shown) [mimosine]
- inhibition of proline hydroxylation (prolyl 4-hydroxylase; 400 μM): only minor inhibition
- IC50 (HUVEC [1]; 18 h): 455 µM
- impairment of tube formation (HUVEC [2]; 400 μM): little sign of impairment
- inhibition of sprout growth (chick aortic arch rings; 400 μM, 72 h): moderate inhibition
- increase in G1 (HUVEC [3]; 400 μM, 24 h incubation): did not cause a significant increase in G1
- IC50 [4]: 191 µM

Structure (SMILES): CC(=O)N(O)CCCCCNC(=O)CCC(=O)N(O)CCCCCNC(=O)CCC(=O)N(O)CCCCCN [deferoxamine]
- inhibition of proline hydroxylation (prolyl 4-hydroxylase; 100 μM): 40%
- IC50 (HUVEC [1]; 18 h of treatment): 16 µM
- concentration that gave close to the maximum accumulation (>70%) of HUVEC in G1 (HUVEC [3]): 50 µM
- IC50 [4]: 16 µM and ~16 µM

Structure (SMILES): Cc1c(O)c(=O)ccn1C [deferiprone, 1,2-dimethyl-3-hydroxypyrid-4-one]
- IC50 (HUVEC [1]; 18 h, 18 h of treatment): 130 µM
- inhibition of tube formation (HUVEC [2]; 200 μM): Modest inhibition
- concentration showing a strong inhibition of sprouting (chick aortic arch rings; 72 h of incubation): 400 µM
- concentration that gave close to the maximum accumulation (>70%) of HUVEC in G1 (HUVEC [3]): 200 µM
- IC50 [4]: 117 µM
